Key:
[1] = biological target: sigma 2 (Homo sapiens, UniProt Q5BJF2); conditions: cited from earlier work
[2] = biological target: other neurotransmitter receptors; conditions: except sigma receptors; cited from earlier work
[3] = system: C57BL/6NTac mice; experiment: Novelty-suppressed feeding (NSF) in CORT model; format: in vivo; conditions: male C57BL/6NTac; Flx 18 mg/kg/day or RS-67,333 1.5 mg/kg/day for 3 weeks prior to CORT
Description: This chronic CORT elevation dysregulates the hypothalamic-pituitary-adrenal axis (HPA) in a manner similar to that observed in clinical depression. The dose and duration of CORT treatment was selected based on previous studies. CORT (35 μg/ml, equivalent to about 5 mg/kg/day) dissolved in 0.45% hydroxypropyl-o-cyclodextrin (0-CD) or vehicle (VEH) (0.45% j-CD) was available ad libitum in the drinking water in opaque bottles to protect it from light. VEH- and CORT-treated water was changed every 3 days to prevent possible degradation. Contextual Fear Conditioning (CFC): A 3-shock CFC procedure was administered as previously published. Briefly, mice were placed into context A and administered 3 2-s shocks (0.75 mA) at 180 s, 240 s or 300 s following placement into context A. Mice were removed from the context 15 s following the termination of shock (at 317 s). For context retrieval, mice were placed back into context A for 300 s. Electrophysiology: Electrophysiology was conducted as previously described. Statistical Analysis: Results from data analyses are expressed as means±SEM. Alpha was set to 0.05 for all analyses. Data were analyzed using GraphPad Prism v7.0 or v8.0. For all experiments, unless otherwise noted, one- or two-way ANOVAs with repeated-measures were applied to the data as appropriate. […] Videos were scored using ANY-maze behavior tracking software (Stoelting, Wood Dale, Ill.). […]

[4] = system: C57BL/6NTac mice; experiment: Elevated plus maze (EPM) in CORT model; format: in vivo; conditions: male C57BL/6NTac; Flx 18 mg/kg/day or RS-67,333 1.5 mg/kg/day for 3 weeks prior to CORT
Description: This chronic CORT elevation dysregulates the hypothalamic-pituitary-adrenal axis (HPA) in a manner similar to that observed in clinical depression. The dose and duration of CORT treatment was selected based on previous studies. CORT (35 μg/ml, equivalent to about 5 mg/kg/day) dissolved in 0.45% hydroxypropyl-o-cyclodextrin (0-CD) or vehicle (VEH) (0.45% j-CD) was available ad libitum in the drinking water in opaque bottles to protect it from light. VEH- and CORT-treated water was changed every 3 days to prevent possible degradation. Contextual Fear Conditioning (CFC): A 3-shock CFC procedure was administered as previously published. Briefly, mice were placed into context A and administered 3 2-s shocks (0.75 mA) at 180 s, 240 s or 300 s following placement into context A. Mice were removed from the context 15 s following the termination of shock (at 317 s). For context retrieval, mice were placed back into context A for 300 s. Electrophysiology: Electrophysiology was conducted as previously described. Statistical Analysis: Results from data analyses are expressed as means±SEM. Alpha was set to 0.05 for all analyses. Data were analyzed using GraphPad Prism v7.0 or v8.0. For all experiments, unless otherwise noted, one- or two-way ANOVAs with repeated-measures were applied to the data as appropriate. Significant main effects and/or interactions were followed by Fisher's PLSD post hoc analysis or unpaired t-tests. Drugs: All drugs were prepared in physiological saline and all injections were administered intraperitoneally (i.p.) in volumes of 0.1 cc per […] body weight unless otherwise noted. Fluoxetine hydrochloride (Flx): Flx (BioTrend Chemicals AG, BG197, Zurich, Germany) was administered in the drinking water (18 mg/kg/day) for 3 weeks before the start of CORT. […] (R,S)-ketamine (K): (R,S)-ketamine (Ketaset III, Ketamine HCl injection, Fort Dodge Animal Health, Fort Dodge, Iowa) was administered in a single dose at 30 mg/kg of body weight 1 week before the start of CFC. […] PF-04995274: PF-04995274 (Sigma, Catalog No. 1331782-27-4, St. Louis, Mo.) was administered a single dose at 3 or 10 mg/kg of body weight 1 week before the start of CFC. PF-04995274 was dissolved in saline using an ultrasonic homogenizer (BioLogics, Model 3000, Manassas, Va.). Osmotic minipump implantation: ALZET osmotic minipumps (Model 2004, […], 28 days) were implanted subcutaneously under isoflurane anesthesia as previously described [S2]. Osmotic minipumps were rotated under the skin two to three times per week. Behavioral Assays: All experiments were approved by the Institutional Animal Care and Use Committee (IACUC) at the New York Psychiatric Institute (NYSPI). […] Videos were scored using ANY-maze behavior tracking software (Stoelting, Wood Dale, Ill.). […]

[5] = biological target: sigma 1 (Homo sapiens, UniProt Q99720); conditions: cited from earlier work
sigma 1, sequence (Q99720 whole entry): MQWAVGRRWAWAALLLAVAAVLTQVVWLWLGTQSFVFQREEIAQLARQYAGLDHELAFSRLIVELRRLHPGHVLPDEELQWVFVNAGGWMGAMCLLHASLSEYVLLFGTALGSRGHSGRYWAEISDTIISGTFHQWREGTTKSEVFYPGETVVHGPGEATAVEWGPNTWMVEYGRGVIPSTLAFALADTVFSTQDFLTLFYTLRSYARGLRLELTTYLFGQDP

[6] = system: 129S6/SvEv mice; experiment: Open field (OF) after CFC; format: in vivo
Description: This chronic CORT elevation dysregulates the hypothalamic-pituitary-adrenal axis (HPA) in a manner similar to that observed in clinical depression. The dose and duration of CORT treatment was selected based on previous studies. CORT (35 μg/ml, equivalent to about 5 mg/kg/day) dissolved in 0.45% hydroxypropyl-o-cyclodextrin (0-CD) or vehicle (VEH) (0.45% j-CD) was available ad libitum in the drinking water in opaque bottles to protect it from light. VEH- and CORT-treated water was changed every 3 days to prevent possible degradation. Contextual Fear Conditioning (CFC): A 3-shock CFC procedure was administered as previously published. Briefly, mice were placed into context A and administered 3 2-s shocks (0.75 mA) at 180 s, 240 s or 300 s following placement into context A. Mice were removed from the context 15 s following the termination of shock (at 317 s). For context retrieval, mice were placed back into context A for 300 s. Electrophysiology: Electrophysiology was conducted as previously described. Statistical Analysis: Results from data analyses are expressed as means±SEM. Alpha was set to 0.05 for all analyses. Data were analyzed using GraphPad Prism v7.0 or v8.0. For all experiments, unless otherwise noted, one- or two-way ANOVAs with repeated-measures were applied to the data as appropriate. Significant main effects and/or interactions were followed by Fisher's PLSD post hoc analysis or unpaired t-tests. Drugs: All drugs were prepared in physiological saline and all injections were administered intraperitoneally (i.p.) in volumes of 0.1 cc per […] body weight unless otherwise noted. Fluoxetine hydrochloride (Flx): Flx (BioTrend Chemicals AG, BG197, Zurich, Germany) was administered in the drinking water (18 mg/kg/day) for 3 weeks before the start of CORT. […] (R,S)-ketamine (K): (R,S)-ketamine (Ketaset III, Ketamine HCl injection, Fort Dodge Animal Health, Fort Dodge, Iowa) was administered in a single dose at 30 mg/kg of body weight 1 week before the start of CFC. […] Videos were scored using ANY-maze behavior tracking software (Stoelting, Wood Dale, Ill.). […]

[7] = system: 129S6/SvEv mice; experiment: 3-shock contextual fear conditioning (CFC); format: in vivo; conditions: FIG. 2D
Description: This chronic CORT elevation dysregulates the hypothalamic-pituitary-adrenal axis (HPA) in a manner similar to that observed in clinical depression. The dose and duration of CORT treatment was selected based on previous studies. CORT (35 μg/ml, equivalent to about 5 mg/kg/day) dissolved in 0.45% hydroxypropyl-o-cyclodextrin (0-CD) or vehicle (VEH) (0.45% j-CD) was available ad libitum in the drinking water in opaque bottles to protect it from light. VEH- and CORT-treated water was changed every 3 days to prevent possible degradation. Contextual Fear Conditioning (CFC): A 3-shock CFC procedure was administered as previously published. Briefly, mice were placed into context A and administered 3 2-s shocks (0.75 mA) at 180 s, 240 s or 300 s following placement into context A. Mice were removed from the context 15 s following the termination of shock (at 317 s). For context retrieval, mice were placed back into context A for 300 s. Electrophysiology: Electrophysiology was conducted as previously described. Statistical Analysis: Results from data analyses are expressed as means±SEM. Alpha was set to 0.05 for all analyses. Data were analyzed using GraphPad Prism v7.0 or v8.0. For all experiments, unless otherwise noted, one- or two-way ANOVAs with repeated-measures were applied to the data as appropriate. Significant main effects and/or interactions were followed by Fisher's PLSD post hoc analysis or unpaired t-tests. Drugs: All drugs were prepared in physiological saline and all injections were administered intraperitoneally (i.p.) in volumes of 0.1 cc per […] body weight unless otherwise noted. Fluoxetine hydrochloride (Flx): Flx (BioTrend Chemicals AG, BG197, Zurich, Germany) was administered in the drinking water (18 mg/kg/day) for 3 weeks before the start of CORT. […] (R,S)-ketamine (K): (R,S)-ketamine (Ketaset III, Ketamine HCl injection, Fort Dodge Animal Health, Fort Dodge, Iowa) was administered in a single dose at 30 mg/kg of body weight 1 week before the start of CFC. […] PF-04995274: PF-04995274 (Sigma, Catalog No. 1331782-27-4, St. Louis, Mo.) was administered a single dose at 3 or 10 mg/kg of body weight 1 week before the start of CFC. PF-04995274 was dissolved in saline using an ultrasonic homogenizer (BioLogics, Model 3000, Manassas, Va.). Osmotic minipump implantation: ALZET osmotic minipumps (Model 2004, […], 28 days) were implanted subcutaneously under isoflurane anesthesia as previously described [S2]. Osmotic minipumps were rotated under the skin two to three times per week. Behavioral Assays: All experiments were approved by the Institutional Animal Care and Use Committee (IACUC) at the New York Psychiatric Institute (NYSPI). Elevated Plus Maze (EPM): Testing was performed as previously described [S3]. Briefly, the maze is a plus-cross-shaped apparatus consisting of four arms, two open and two enclosed by walls, linked by a central platform at a height of 50 cm from the floor. Mice were individually placed in the center of the maze facing an open arm and were allowed to explore the maze for 5 min. The time spent in and the number of entries into the open arms was used as an anxiety index. Videos were scored using ANY-maze behavior tracking software (Stoelting, Wood Dale, Ill.). Novelty-Suppressed Feeding: The NSF is a conflict test that elicits competing motivations: the drive to eat and the fear of venturing into the center of a brightly lit arena. The latency to feed is used as an index of anxiety-like behavior, because classical anxiolytic drugs decrease this measure. The NSF test was carried out during an 8 min period as previously described [S3]. Briefly, the testing apparatus consisted of a plastic box (50×50×20 cm), the floor of which was covered with approximately 2 cm of bedding. For 129S6/SvEv experiments, mice were food restricted for 12 h. For the C57BL/6N experiments, mice were food restricted for 24 h. […]

sigma 2, sequence (Q5BJF2 whole entry): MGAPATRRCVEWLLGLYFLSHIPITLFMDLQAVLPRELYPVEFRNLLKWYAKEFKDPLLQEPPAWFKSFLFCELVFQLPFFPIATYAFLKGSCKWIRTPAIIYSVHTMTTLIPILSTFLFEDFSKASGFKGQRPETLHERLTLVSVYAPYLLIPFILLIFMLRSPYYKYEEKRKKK

CCCCN1CCC(CCC(=O)c2cc(Cl)c(N)cc2OC)CC1.Cl [RS-67,333, 1-(4-amino-5-chloro-2-methoxyphenyl)-3-[1(n-butyl)-4-piperidinyl]-1-propanone HCl]
pKi sigma 2 [1]: 8.0
pKi for other neurotransmitter receptors [2]: less than 6.7
latency to approach the food pellet (NSF) vs CORT+Veh [3]: significantly decreased latency
entries into the open arms of the EPM vs CORT+Veh [4]: significantly more entries
time spent in the open arms of the EPM vs VEH+Veh [4]: did not alter
pKi sigma 1 [5]: 8.9
p, OF Time in Center, Saline vs. RS67333 (10 mg/kg) ([6]; FIG. 2I, t-test): 0.2475
time spent in the center of the OF ([6]; female 129S6/SvEv, 1.5 or 10 mg/kg): did not alter
time in the center of the OF arena vs saline ([6]; male 129S6/SvEv, 10 mg/kg): comparable amount of time
p value, CFC Re-exposure Average Freezing (%), Fisher's LSD ([7]; RS67333 (1.5 mg/kg) vs. (second group beyond the rows shown)): 0.3259
p value, CFC Re-exposure Average Freezing (%), Fisher's LSD ([7]; RS67333 (1.5 mg/kg) vs. RS67333 (10 mg/kg)): 0.8278
p value, CFC Re-exposure Average Freezing (%), Fisher's LSD ([7]; Saline vs. RS67333 (1.5 mg/kg)): 0.0185
p value, CFC Re-exposure Average Freezing (%), Fisher's LSD ([7]; Saline vs. RS67333 (10 mg/kg)): 0.0006
p value, CFC Re-exposure Average Freezing (%), Fisher's LSD ([7]; Saline vs. RS67333 (30 mg/kg)): 0.2625
